Source: patent US8969333B2, “Therapeutic compositions and methods” (The Penn State Research Foundation, priority 2010, dated 2015)
pIC50: −log10 of the molar value.

What was measured:
PAD4 = PAD4 (Homo sapiens (Human), UniProt Q9UM07); test: PAD4 enzyme activity colorimetric assay (citrullination of BAEE); assay type: biochemical; details: 0.2 μg PAD4, 5 mM BAEE, 37° C.
Protocol: PAD4 enzyme activity assays are conducted to determine PAD4 inhibitory activity. PAD4 inhibition efficacy of the inhibitors is determined using a colorimetric assay for citrullination production.
The inhibition efficacy of PAD4 inhibitors were determined by colorimetric measurement of citrulline generated by PAD4 catalyzed citrullination of BAEE. 0.2 μg PAD4 was pre-incubated with inhibitors in 100 μl buffer containing 50 mM Tris-HCl pH7.6, 5 mM CaCl2, 2 mM DTT for 0.5 hr at 37° C. The reaction was started by the addition of BAEE to 5 mM and halted 1.5 hr later with the addition of 25 μl 5 M HClO4. Then the samples were briefly centrifuged at 12000 rpm for 2 min at 4° C. and the supernatant (120 μl) were assayed for citrulline by mixing with 120 μl reagent A (0.5% w/v diacetyl monoxime and 15% w/v NaCl in water) and 240 μl reagent B (1% w/v antipyrine, 0.15% w/v ferric chloride, 25% v/v H2SO4 and 25% v/v H3PO4). The mixtures were boiled for 15 min and cooled to room temperature in ice bath. The absorbance of the reagent mixtures at 464 nm was measured by Thermo BioMate™ 3 spectrophotometer. Efficacies of inhibitors are indicated as relative PAD4 citrullination activity by normalizing the PAD4 activity without inhibitor treatment to 100%.

S180 tumor = test: Sarcoma S180 cell-derived mouse tumor model; assay type: in vivo; details: YW3-56 10 mg/kg i.p. daily for 1 week
Source text: A well-established sarcoma S180 cell-derived mouse tumor model is used in this example to determine the effects of PAD4 inhibitors of the present invention on tumor growth in mice.
S180 ascites tumor cells were used to form solid tumors after subcutaneous injection essentially as described in Wang, W. et al., Mol. Biosyst., 2011, 7:766-772. In brief, for initiation of subcutaneous tumors, the cells were obtained as an ascitic form from the tumor-bearing mice, which were serially transplanted once per week. Subcutaneous tumors were implanted by injecting 0.2 ml of 0.9% saline containing 1×10^7 viable tumor cells under the skin on the right armpit. 24 hr after implantation, male ICR mice were randomly divided into experimental groups. The mice in the positive control group were given a daily i.p injection of 2 mg/kg of doxorubicin in 0.2 ml of 0.9% saline for 7 consecutive days. The mice in the negative control group were given a daily i.p injection of 0.2 ml of 0.9% saline for 7 consecutive days. The mice in the treatment groups were given a daily i.p injection of YW3-56 (10 mg/kg), SAHA (5 mg/kg), or a combination of YW3-56 (5 mg/kg) and SAHA (2.5 mg/kg) for 7 consecutive days. The weights of the mice were recorded every day. 24 hr after the last administration, all mice were weighed, euthanized and immediately dissected to obtain and weigh the tumor and vital organs.

[1] = Three-month YW3-56 treatment of nude mice: body and vital organ size; assay type: in vivo, mouse; details: 10 mg/kg, three months
Protocol: (§1) FIGS. 11a and 11b show results of the effect of long term YW3-56 treatment in mice. A pair of nude mice is mock injected or injected with YW3-56 for three months. RT-qPCR analyses of p53 and its target gene mRNA levels in control and YW3-56 treated mice. […] However, these changes are at low levels and no clear change in liver weight and morphology is observed.
A three-month YW3-56 treatment including daily injection of YW3-56 at 10 mg/kg body weight in a pair of nude mice is performed and the size of mouse body and vital organs is not altered after YW3-56 treatment as shown in FIG. 13.

p53 and its target genes = test: RT-qPCR of p53 and its target gene mRNA in liver and spleen of treated nude mice; assay type: in vivo, mouse; details: YW3-56 10 mg/kg, 3 months
Protocol: RNA was extracted using RNeasy Mini Kit (Qiagen) per manufacturer's instructions. 1 μg RNA was reverse transcribed into cDNA using qScript cDNA SuperMix (Quanta Biosciences) per manufacturer's instructions. Quantitative PCR was performed using SYBR Green SuperMix (Quanta Biosciences) in StepOnePlus Real-Time PCR System (Applied Biosystems). FIG. 10 is a graph showing p53 and its target gene expression induced in S180 cells by YW3-56 in a concentration dependent manner.
Expression of p53 and its target genes in mouse liver and spleen after YW3-56 injection at 10 mg/kg body weight once every two days for 3 months.
as §1

U2OS cells = test: Phase contrast microscopy of U2OS cell growth and morphology; assay type: cell-based, human; details: 0-16 μM, 24 hours
Protocol: Cell growth and morphology changes of cells treated with compounds of the present invention are analyzed using phase contrast microscopy.
A VistaVision invert microscope (VWR Inc.) equipped with a Spot Insight digital camera (NDS, Inc.) and a 10× phase contrast lens were used to analyze cell growth and morphology in phase contrast microscopy analyses.
In this example, U2OS are treated with […] YW3-56 for 24 hours.

U2OS p53-shRNA cells = test: MTT assay of U2OS cells with or without p53 depletion by shRNA; assay type: cell-based, human; details: same inhibitor concentration, p<0.02
Protocol: MTT assays are performed in U2OS cells with or without p53 depletion to analyze the role of p53 in YW3-56 mediated cell growth inhibition and autophagy.
U2OS and S-180 cells were cultured in Dulbecco modified Eagle medium (DMEM) supplemented with 10% fetal bovine serum and 1% penicillin-streptomycin in a 5% CO2 incubator. U2OS p53-shRNA and U2OS Ctrl-shRNA cells were generated as described in Li, P. et al., Regulation of p53 target gene expression by peptidylarginine deiminase 4. Mol Cell Bial 28 (15), 4745-4758 (2008). Concentrations and duration of YW3-56 treatment were performed as specified in the figures and text. For starvation assay, U2OS cells were first cultured in serum-free DMEM for 16 hr, 10% fetal bovine serum and different concentrations of YW3-56 was then added back and cells were further incubated for 8 hr before further analyses. SESN2 siRNA (Santa Cruz) and GFP siRNA (Dharmacon Inc.) were transfected into U2OS cells using the XtremeGene siRNA transfection reagents (Roche Inc.). Cells were incubated in the presence of the siRNA for 48 hr before adding YW3-56 and further incubated for 8 hr before analyses.

PAD4, sequence (Q9UM07 whole entry, species assumed): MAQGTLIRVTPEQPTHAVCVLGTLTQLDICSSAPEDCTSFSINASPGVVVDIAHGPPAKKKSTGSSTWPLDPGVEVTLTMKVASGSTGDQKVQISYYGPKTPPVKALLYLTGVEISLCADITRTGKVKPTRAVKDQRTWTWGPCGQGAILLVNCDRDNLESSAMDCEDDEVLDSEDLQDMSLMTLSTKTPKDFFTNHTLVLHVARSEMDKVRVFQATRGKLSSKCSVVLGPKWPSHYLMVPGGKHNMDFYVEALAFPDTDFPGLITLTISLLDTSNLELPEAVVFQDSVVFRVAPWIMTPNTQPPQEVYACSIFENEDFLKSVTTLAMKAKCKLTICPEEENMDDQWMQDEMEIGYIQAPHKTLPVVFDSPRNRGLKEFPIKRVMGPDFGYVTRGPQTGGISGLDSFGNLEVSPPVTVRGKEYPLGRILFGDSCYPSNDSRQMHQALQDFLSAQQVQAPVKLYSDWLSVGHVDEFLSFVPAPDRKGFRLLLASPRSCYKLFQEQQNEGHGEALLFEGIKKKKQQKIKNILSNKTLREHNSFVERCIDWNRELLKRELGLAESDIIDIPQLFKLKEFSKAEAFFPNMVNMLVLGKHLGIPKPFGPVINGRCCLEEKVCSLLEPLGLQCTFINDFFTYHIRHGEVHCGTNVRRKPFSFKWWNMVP

Compound: CN(C)c1ccc2cc(C(=O)N[C@@H](CCCNC(=N)CCl)C(=O)NCc3ccccc3)ccc2c1 [YW3-56]
- pIC50 (PAD4): 5.30 to 6.00
- growth of S180 tumor relative to control group (S180 tumor): ~51.5%
- size of mouse body and vital organs [1]: not altered
- OKL38 mRNA change in liver (p53 and its target genes; decrease): ~2 fold
- PUMA mRNA change in liver (p53 and its target genes; decrease): ~2 fold
- p21 mRNA change in liver (p53 and its target genes; increase): ~2 fold
- p53 mRNA change in liver (p53 and its target genes; increase): ~2 fold
- changes in gene expression in spleen (p53 and its target genes; 2-fold expression change as cut off): not detected
- U2OS cell density in culture (U2OS cells): decreases U2OS cell density
- efficacy on cell growth inhibition after p53 depletion (U2OS p53-shRNA cells): decreased significantly
